Assay results as given in US4000985A, “Azo dyes having a high solubility in petroleum fuels” (Morton-Norwich Products, Inc., priority 1975, dated 1977).

Key:
Format in all cases: physicochemical
[1] = Rate and extent of dissolution in No. 1 and No. 2 Heating Oils at 25° C. (colorimetric); conditions: for solubility in fuel oils (in words): No. 1 and No. 2 fuel oils; for dissolution in the heating oils: two minutes contact
Experimental: The solubility properties of each of the dyes of Examples 16-41 were evaluated in the fuels No. 1 and No. 2 Heating Oils, respectively. The procedure was as follows:
Where the dyes are solid dyes, excess of pulverized solid dye, far beyond that which would dissolve, i.e., 30 to 35% dye, was added to the respective oils at 25° C. and agitated at constant speed. Samples were removed at 1, 10 and 20 minute intervals, filtered, and the amount of dissolved dye determined colorimetrically.
The tarry non-solid dyes were charged in proportions of 50-60% dye to 50-40% oil rather than 30-35% used for the solid dyes. In fact, it was very difficult to stir the tarry dye-fuel oil mixture at a dye concentration of 50%. Samples for these dyes were taken after 2 minutes. The longer initial time for the tarry dyes was to permit reasonable contact between solvent and the viscous, condensed dye.

[2] = Dissolution of 58% dye in 42% fuel by warming, cooling to 25° C. (six heating/diesel oils); conditions: 58% by weight dye, warmed, cooled to 25° C.
Experimental: No. 2 Regular Grade Diesel Oil
Each dye-fuel oil mixture was warmed with stirring and then cooled to 25° C.

[3] = Storage solubility in No. 1 and No. 2 Heating Oil at ambient temperature and -10° C.
Experimental: The resultant mixtures were stored at ambient temperatures (20° to 25° C.) and at -10° C. Where any separation of dye occurred, the dye content of the remaining solution was determined colorimetrically.

[4] = Storage solubility in xylene at 20°-25° C. and -10° C.
Experimental: The solutions obtained were stored at 20°-25°C. and at -10° C. Where any separation of dye occurred, the dye content of the remaining solution was determined colorimetrically.

[5] = Physical state of the isolated dye; conditions: for Physical State of Dye: after isolation according to Procedure B
Excerpt: alternatively, the crude liquid dye may be taken up with a volatile solvent and the solvent removed during the drying process to yield a non-volatile liquid colorant.

[6] = General statements on solubility and dissolution rate in petroleum fuels
[7] = Dissolution of 58% dye in 42% fuel by warming, cooling to 25° C. (six heating/diesel oils)
[8] = Equilibrium solubility of Solvent Red No. 19 in petroleum fuels (filtrate, colorimetric)
Experimental: Solvent Red No. 19 was subjected to the same solubility test as set forth in Example 14.
In each instance, the precipitated mass was filtered and the dye content of the filtrate was determined colorimetrically.

[9] = No. 1 Fuel Oil, 20 Minutes, 25° C., aminoazotoluene dyes (Table 6)
[10] = No. 2 Fuel Oil, 20 Minutes, 25° C., aminoazotoluene dyes (Table 7)
[11] = No. 1 Heating Oil, 20° C.-25° C. (Table 8)
[12] = No. 2 Heating Oil, 20° C.-25° C. (Table 9)
[13] = No. 1 Fuel Oil, 20 Minutes, 25° C., aminoazobenzene dyes (Table 4)
[14] = No. 2 Fuel Oil, 20 Minutes, 25° C., aminoazobenzene dyes (Table 5)
[15] = No. 1 Heating Oil, 20° C.-25° C. (Table 10)
[16] = No. 2 Heating Oil, 20° C.-25° C. (Table 11)
[17] = No. 1 Heating Oil, -10° C. (Table 10)
[18] = No. 2 Heating Oil, -10° C. (Table 11)

Structure (SMILES)	Solubility (% by Wt.) [3, 11]	Solubility (% by Wt.) [3, 12]	Solubility (% by Wt.) ([4]; 20° C.-25° C. (Table 12))	Solubility (% by Wt.) ([4]; -10° C. (Table 12))	Physical State of Dye at 20° C. [5]	equilibrium solubilities [7]	Solubility (% by Wt.) [3, 15]	Solubility (% by Wt.) [3, 16]	Solubility (% by Wt.) [3, 17]	Solubility (% by Wt.) [3, 18]	behavior of dye-fuel oil mixture on cooling/storage [2]	also measured
CCCCC(CC)CNc1ccc2ccccc2c1N=Nc1ccc(N=Nc2ccccc2C)cc1C (stereo not drawn) [Example 1]	Complete	Complete	Complete	Complete	Liquid						completely soluble and remained soluble at temperatures ranging from -10 °C to 25 °C	Percent Dissolved [1, 9]: 58.0%; Percent Dissolved ([1]; No. 1 Fuel Oil, 2 min, aminoazotoluene dyes (Table 6)): 58.0%; solubility in fuel oils (in words) [1]: exceptionally high solubility; Percent Dissolved [1, 10]: 55.3%; Percent Dissolved ([1]; No. 2 Fuel Oil, 2 min, aminoazotoluene dyes (Table 7)): 55.3%; dissolution in the heating oils [1]: dissolved completely after two minutes contact; Solubility (% by Wt.) ([3]; No. 1 Heating Oil, -10° C. (Table 8)): Complete; Solubility (% by Wt.) ([3]; No. 2 Heating Oil, -10° C. (Table 9)): Complete; Physical State of Dye ([5]; listed as 38): liquid dye
CCCCC(CC)CNc1ccc2ccccc2c1N=Nc1ccc(N=Nc2ccccc2)cc1 (stereo not drawn) [Example 2]	4.4 % by Wt.	5.1 % by Wt.	25.5 % by Wt.	10.35 % by Wt.	Solid						precipitated as a solid mass almost immediately upon cooling to 25 °C	Percent Dissolved ([1]; No. 1 Fuel Oil, 1 Minute, 25° C., aminoazobenzene dyes (Table 4)): 3.43%; Percent Dissolved ([1]; No. 1 Fuel Oil, 10 Minutes, 25° C., aminoazobenzene dyes (Table 4)): 3.87%; Percent Dissolved [1, 13]: 4.47%; Percent Dissolved ([1]; No. 2 Fuel Oil, 1 Minute, 25° C., aminoazobenzene dyes (Table 5)): 4.63%; Percent Dissolved ([1]; No. 2 Fuel Oil, 10 Minutes, 25° C., aminoazobenzene dyes (Table 5)): 4.90%; Percent Dissolved [1, 14]: 5.13%; crystallization from oily solvents ([6]; aromatic solvents, diesel and heating oils): crystallizes from oily solvents, including aromatic solvents, and diesel and heating oils; Physical State of Dye [5]: Solid
CCCCC(CC)CNc1ccc2ccccc2c1N=Nc1cc(C)c(N=Nc2ccccc2C)cc1C (stereo not drawn) [Example 4]	44.8 % by Wt.	44.1 % by Wt.	50.0 % by Wt.	25.0 % by Wt.	Liquid	exceeded 25 percent by weight					displayed some separation of dye upon lengthy storage	
CCCCC(CC)COCCCNc1ccc2ccccc2c1N=Nc1ccc(N=Nc2ccccc2C)cc1C (stereo not drawn) [Example 7]			Complete	20.8 % by Wt.	Solid		8.3 % by Wt.	7.7 % by Wt.			precipitated as a solid mass almost immediately upon cooling to 25 °C	Percent Dissolved ([1]; No. 1 Fuel Oil, 1 Minute, 25° C., aminoazotoluene dyes (Table 6)): 6.44%; Percent Dissolved ([1]; No. 1 Fuel Oil, 10 Minutes, 25° C., aminoazotoluene dyes (Table 6)): 7.41%; Percent Dissolved [1, 9]: 8.35%; Percent Dissolved ([1]; No. 2 Fuel Oil, 1 Minute, 25° C., aminoazotoluene dyes (Table 7)): 6.12%; Percent Dissolved ([1]; No. 2 Fuel Oil, 10 Minutes, 25° C., aminoazotoluene dyes (Table 7)): 6.85%; Percent Dissolved [1, 10]: 7.71%; solubility in petroleum fuels (in words) [6]: relatively low solubility in petroleum fuels; Physical State of Dye [5]: Solid
CCCCC(CC)COCCCNc1ccc2ccccc2c1N=Nc1ccc(N=Nc2ccccc2)cc1 (stereo not drawn) [Example 8]			Complete	Complete	Liquid		Complete	Complete	Complete	Complete	completely soluble and remained soluble at temperatures ranging from -10 °C to 25 °C	Percent Dissolved [1, 13]: 52.3%; Percent Dissolved ([1]; No. 1 Fuel Oil, 2 min., aminoazobenzene dyes (Table 4)): 52.3%; solubility in fuel oils (in words) [1]: exceptionally high solubility; Percent Dissolved [1, 14]: 52.3%; Percent Dissolved ([1]; No. 2 Fuel Oil, 2 min., aminoazobenzene dyes (Table 5)): 52.3%; dissolution in the heating oils [1]: dissolved completely after two minutes contact; Physical State of Dye ([5]; listed as 27): liquid
CCNc1ccc2ccccc2c1N=Nc1ccc(N=Nc2ccccc2)cc1 [Solvent Red No. 19]											precipitation occurred immediately	% by Weight Soluble (At Equilibrium) ([8]; No. 1 Heating Oil): 2.23 % by Weight; % by Weight Soluble (At Equilibrium) ([8]; No. 1 Premium Diesel): 1.89 % by Weight; % by Weight Soluble (At Equilibrium) ([8]; No. 2 Heating Oil): 3.41 % by Weight; % by Weight Soluble (At Equilibrium) ([8]; No. 2 Premium Diesel): 2.30 % by Weight; % by Weight Soluble (At Equilibrium) ([8]; No. 2 Regular Diesel): 2.63 % by Weight; % by Weight Soluble (At Equilibrium) ([8]; No. 4 Heating Oil): 5.76 % by Weight

More lines, main results first:

Solubility (% by Wt.) [3, 11]	Solubility (% by Wt.) [3, 12]	Solubility (% by Wt.) ([4]; 20° C.-25° C. (Table 12))	Solubility (% by Wt.) ([4]; -10° C. (Table 12))	Physical State of Dye at 20° C. [5]	equilibrium solubilities [7]	Solubility (% by Wt.) [3, 15]	Solubility (% by Wt.) [3, 16]	Solubility (% by Wt.) [3, 17]	Solubility (% by Wt.) [3, 18]	Structure (SMILES)	behavior of dye-fuel oil mixture on cooling/storage [2]	also measured
		Complete	38.1 % by Wt.	Tar	exceeded 25 percent by weight	26.6 % by Wt.	28.8 % by Wt.	9.5 % by Wt.	9.5 % by Wt.	CCCCC(CC)COCCCNc1ccc2ccccc2c1N=Nc1ccc(N=Nc2ccccc2)cc1C (stereo not drawn) [Example 9]	displayed some separation of dye upon lengthy storage	
		36.3 % by Wt.	20.8 % by Wt.	Tar	exceeded 25 percent by weight	29.5 % by Wt.	29.7 % by Wt.	19.8 % by Wt.	12.1 % by Wt.	CCCCC(CC)COCCCNc1ccc2ccccc2c1N=Nc1cc(C)c(N=Nc2ccccc2C)cc1C (stereo not drawn) [Example 10]	displayed some separation of dye upon lengthy storage	
